The text below walks through data of PMC5218480 (PLoS ONE, 2017).

SMILES strings stand for the structures.

This test deals with MV-4-11 cells. Description: Gene expression microarray analysis (Affymetrix PrimeView) and GSEA. The test is classed as cell-based, human. Also on record: RFU PODN (11730768_x_at) / Fold change /veh PODN (11730768_x_at) / RFU LINC00158 (11744669_a_at) / Fold change /veh LINC00158 (11744669_a_at) / RFU DUSP10 (11751237_a_at) / Fold change /veh DUSP10 (11751237_a_at) / RFU ID3 (11757404_x_at) / Fold change /veh ID3 (11757404_x_at) / RFU PLEKHG5 (11737974_s_at) / Fold change /veh PLEKHG5 (11737974_s_at) / RFU LRRC4B (11730491_at) / Fold change /veh LRRC4B (11730491_at) / RFU GIMAP4 (11747438_a_at) / Fold change /veh GIMAP4 (11747438_a_at) / RFU KRT8 (11758183_x_at) / Fold change /veh KRT8 (11758183_x_at) / RFU CNN1 (11734310_a_at) / Fold change /veh CNN1 (11734310_a_at) / RFU VPS37D (11726825_at) / Fold change /veh VPS37D (11726825_at) / RFU C10orf10 (11716522_x_at) / Fold change /veh C10orf10 (11716522_x_at) / RFU KIR2DL2 /// KIR2DL4 /// KIR2DL5A /// KIR2DL5B /// KIR2DS1 /// KIR2DS2 /// KIR2DS3 /// KIR2DS4 /// KIR3DL3 /// KIR3DL3 /// KIR3DS1 (11738374_at) / Fold change /veh KIR2DL2 /// KIR2DL4 /// KIR2DL5A /// KIR2DL5B /// KIR2DS1 /// KIR2DS2 /// KIR2DS3 /// KIR2DS4 /// KIR3DL3 /// KIR3DL3 /// KIR3DS1 (11738374_at) / RFU C1QL1 (11718748_at) / Fold change /veh C1QL1 (11718748_at) / RFU TMPRSS4 (11747572_a_at) / Fold change /veh TMPRSS4 (11747572_a_at) / RFU HAMP (11756126_x_at) / Fold change /veh HAMP (11756126_x_at) / RFU RNFT2 (11725882_a_at) / Fold change /veh RNFT2 (11725882_a_at) / RFU NR4A2 (11747474_a_at) / Fold change /veh NR4A2 (11747474_a_at) / RFU ABCC12 (11746883_a_at) / Fold change /veh ABCC12 (11746883_a_at) / RFU TMEM136 (11760407_x_at) / Fold change /veh TMEM136 (11760407_x_at) / RFU CLDN22 /// WWC2 (11732394_at) / Fold change /veh CLDN22 /// WWC2 (11732394_at) / RFU HLA-DPB1 (11760878_x_at) / Fold change /veh HLA-DPB1 (11760878_x_at) / RFU SPINT1 (11716480_a_at) / Fold change /veh SPINT1 (11716480_a_at) / RFU GAP43 (11754022_s_at) / Fold change /veh GAP43 (11754022_s_at) / RFU A4GNT (11735810_at) / Fold change /veh A4GNT (11735810_at) / RFU PRB3 (11715151_x_at) / Fold change /veh PRB3 (11715151_x_at) / RFU TUBB4B (11761932_at) / Fold change /veh TUBB4B (11761932_at) / RFU CAPN14 (11732068_a_at) / Fold change /veh CAPN14 (11732068_a_at) / RFU TMCC2 (11721928_a_at) / Fold change /veh TMCC2 (11721928_a_at) / RFU IRGQ (11745062_a_at) / Fold change /veh IRGQ (11745062_a_at) / RFU FAM174B (11720279_a_at) / Fold change /veh FAM174B (11720279_a_at) / RFU TMPRSS4 (11748680_a_at) / Fold change /veh TMPRSS4 (11748680_a_at) / RFU FAM212B (11763350_a_at) / Fold change /veh FAM212B (11763350_a_at) / RFU PLEKHG5 (11743358_a_at) / Fold change /veh PLEKHG5 (11743358_a_at) / RFU ZSCAN30 (11745921_a_at) / Fold change /veh ZSCAN30 (11745921_a_at) / RFU CMKLR1 (11741424_a_at) / Fold change /veh CMKLR1 (11741424_a_at) / RFU LOC101060620 /// MAPK8IP1 (11723275_at) / Fold change /veh LOC101060620 /// MAPK8IP1 (11723275_at) / RFU SPTSSB (11747773_x_at) / Fold change /veh SPTSSB (11747773_x_at) / RFU PRSS12 (11739890_at) / Fold change /veh PRSS12 (11739890_at) / RFU BIN1 (11741810_x_at) / Fold change /veh BIN1 (11741810_x_at) / RFU WNT11 (11732464_a_at) / Fold change /veh WNT11 (11732464_a_at) / RFU C10orf10 (11716521_a_at) / Fold change /veh C10orf10 (11716521_a_at) / RFU C5orf56 (11738089_at) / Fold change /veh C5orf56 (11738089_at) / RFU CYB561 (11721691_x_at) / Fold change /veh CYB561 (11721691_x_at) / RFU ANKRD19P (11752326_a_at) / Fold change /veh ANKRD19P (11752326_a_at) / RFU OR2T12 /// OR2T33 /// OR2T8 (11738714_s_at) / Fold change /veh OR2T12 /// OR2T33 /// OR2T8 (11738714_s_at) / RFU VCAN (11748164_a_at) / Fold change /veh VCAN (11748164_a_at) / RFU JSRP1 (11732532_at) / Fold change /veh JSRP1 (11732532_at) / RFU KRTAP10-11 (11738290_x_at) / Fold change /veh KRTAP10-11 (11738290_x_at) / RFU MYO3A (11730013_a_at) / Fold change /veh MYO3A (11730013_a_at) / RFU EBF3 (11725865_a_at) / Fold change /veh EBF3 (11725865_a_at) / RFU CAMK2N1 (11719241_x_at) / Fold change /veh CAMK2N1 (11719241_x_at) / RFU C5orf56 (11738088_a_at) / Fold change /veh C5orf56 (11738088_a_at) / RFU OLFML3 (11715873_a_at) / Fold change /veh OLFML3 (11715873_a_at) / RFU LOC100653217 /// NTM (11731650_a_at) / Fold change /veh LOC100653217 /// NTM (11731650_a_at) / RFU MAPK11 (11762145_a_at) / Fold change /veh MAPK11 (11762145_a_at) / RFU FIZ1 (11724087_x_at) / Fold change /veh FIZ1 (11724087_x_at) / RFU OASL (11726364_x_at) / Fold change /veh OASL (11726364_x_at) / RFU SOX15 (11748057_x_at) / Fold change /veh SOX15 (11748057_x_at) / RFU CD79A (11719716_a_at) / Fold change /veh CD79A (11719716_a_at) / RFU HIST1H1D (11736915_at) / Fold change /veh HIST1H1D (11736915_at) / RFU CASKIN2 (11723855_a_at) / Fold change /veh CASKIN2 (11723855_a_at) / RFU LOC730098 (11760151_x_at) / Fold change /veh LOC730098 (11760151_x_at) / RFU OR4N2 (11742367_at) / Fold change /veh OR4N2 (11742367_at) / RFU PRRT2 (11749266_a_at) / Fold change /veh PRRT2 (11749266_a_at) / RFU SNX32 (11753110_a_at) / Fold change /veh SNX32 (11753110_a_at) / RFU CDHR5 (11726645_a_at) / Fold change /veh CDHR5 (11726645_a_at) / RFU RCAN1 (11760418_a_at) / Fold change /veh RCAN1 (11760418_a_at) / RFU FAM167A (11723789_a_at) / Fold change /veh FAM167A (11723789_a_at) / RFU FAM26E (11764081_at) / Fold change /veh FAM26E (11764081_at) / RFU ISYNA1 (11749810_s_at) / Fold change /veh ISYNA1 (11749810_s_at) / RFU ACY1 (11761880_at) / Fold change /veh ACY1 (11761880_at) / RFU 11764098_at / Fold change /veh 11764098_at / RFU SAMD14 (11745864_x_at) / Fold change /veh SAMD14 (11745864_x_at) / RFU NPB (11741838_a_at) / Fold change /veh NPB (11741838_a_at) / RFU TMPRSS6 (11731388_a_at) / Fold change /veh TMPRSS6 (11731388_a_at) / RFU KRTAP10-2 (11738614_at) / Fold change /veh KRTAP10-2 (11738614_at) / RFU ARHGAP8 /// PRR5-ARHGAP8 (11727945_x_at) / Fold change /veh ARHGAP8 /// PRR5-ARHGAP8 (11727945_x_at) / RFU KRTAP5-7 /// NADSYN1 (11734609_at) / Fold change /veh KRTAP5-7 /// NADSYN1 (11734609_at) / RFU RASL12 (11751679_a_at) / Fold change /veh RASL12 (11751679_a_at) / RFU CDKN2B (11736163_a_at) / Fold change /veh CDKN2B (11736163_a_at) / RFU PRF1 (11729649_at) / Fold change /veh PRF1 (11729649_at) / RFU, ZNF638 /// ZNF638-IT1 / Fold change vs veh, ZNF638 /// ZNF638-IT1 / RFU, PANK3 / Fold change vs veh, PANK3 / RFU, SH3YL1 / Fold change vs veh, SH3YL1 / RFU, ZEB2 / Fold change vs veh, ZEB2 / RFU, NRIP1 / Fold change vs veh, NRIP1 / RFU, PTTG1IP / Fold change vs veh, PTTG1IP / RFU, CAPN2 / Fold change vs veh, CAPN2 / RFU, MED14 / Fold change vs veh, MED14 / RFU, SNORA58 / Fold change vs veh, SNORA58 / RFU, C1orf63 / Fold change vs veh, C1orf63 / RFU, LRRFIP1 / Fold change vs veh, LRRFIP1 / RFU, NDUFAF7 / Fold change vs veh, NDUFAF7 / RFU, SLC12A2 / Fold change vs veh, SLC12A2 / RFU, IBTK / Fold change vs veh, IBTK / RFU, ESF1 / Fold change vs veh, ESF1 / Fold change vs veh, TMEM50B / RFU, TAOK1 / Fold change vs veh, TAOK1 / RFU, ACBD3 / Fold change vs veh, ACBD3 / RFU, TMA16 / Fold change vs veh, TMA16 / RFU, RWDD3 / Fold change vs veh, RWDD3 / RFU, BCAT1 / Fold change vs veh, BCAT1 / RFU, EDEM3 / Fold change vs veh, EDEM3 / RFU, TMEM33 / Fold change vs veh, TMEM33 / RFU, WDR75 / Fold change vs veh, WDR75 / RFU, AHCTF1 / Fold change vs veh, AHCTF1 / RFU, TFRC / Fold change vs veh, TFRC / RFU, ZDHHC17 / Fold change vs veh, ZDHHC17 / RFU, NOM1 / Fold change vs veh, NOM1 / RFU, ARL8B / Fold change vs veh, ARL8B / RFU, ZBTB11 / Fold change vs veh, ZBTB11 / RFU, TAMM41 / Fold change vs veh, TAMM41 / RFU, KIAA1704 /// LOC100996395 / Fold change vs veh, KIAA1704 /// LOC100996395 / RFU, ING1 / Fold change vs veh, ING1 / RFU, TRMT61B / Fold change vs veh, TRMT61B / RFU, FUBP3 / Fold change vs veh, FUBP3 / RFU, TP53 / Fold change vs veh, TP53 / RFU, TNKS2 / Fold change vs veh, TNKS2 / RFU, ZFP14 / Fold change vs veh, ZFP14 / RFU, ACTR2 / Fold change vs veh, ACTR2 / RFU, PPP3R1 / Fold change vs veh, PPP3R1 / RFU, PIK3R1 / Fold change vs veh, PIK3R1 / RFU, HNRNPA1 / Fold change vs veh, HNRNPA1 / RFU, RNF170 / Fold change vs veh, RNF170 / RFU, ZNF28 / Fold change vs veh, ZNF28 / RFU, RNGTT / Fold change vs veh, RNGTT / RFU, OGT / Fold change vs veh, OGT / RFU, BRD1 / Fold change vs veh, BRD1 / RFU, MARS / Fold change vs veh, MARS / RFU, ZNF655 / Fold change vs veh, ZNF655 / RFU, FAHD1 / Fold change vs veh, FAHD1 / RFU, BDP1 / Fold change vs veh, BDP1 / RFU, LRRCC1 / Fold change vs veh, LRRCC1 / RFU, ARID1A / Fold change vs veh, ARID1A / RFU, ZNF146 / Fold change vs veh, ZNF146 / RFU, ZNF330 / Fold change vs veh, ZNF330 / RFU, GPN3 / Fold change vs veh, GPN3 / RFU, C9orf123 / Fold change vs veh, C9orf123 / RFU, N4BP2L2 / Fold change vs veh, N4BP2L2 / RFU, ARFIP1 / Fold change vs veh, ARFIP1 / RFU, FAM179B / Fold change vs veh, FAM179B / RFU, BCL10 / Fold change vs veh, BCL10 / RFU, UHRF1BP1L / Fold change vs veh, UHRF1BP1L / RFU, BET1 / Fold change vs veh, BET1 / RFU, CNOT2 / Fold change vs veh, CNOT2 / RFU, ZNF268 / Fold change vs veh, ZNF268 / Fold change vs veh, ZNF507 / RFU, DGCR2 / Fold change vs veh, DGCR2 / RFU, WDSUB1 / Fold change vs veh, WDSUB1 / Fold change vs veh, HSP90B1 /// MIR3652 / RFU, ADSS / Fold change vs veh, ADSS / RFU, GK / Fold change vs veh, GK / RFU, ZNF148 / Fold change vs veh, ZNF148 / RFU, TAF9 / Fold change vs veh, TAF9 / RFU, SLC1A5 / Fold change vs veh, SLC1A5 / RFU, SLMO2 / Fold change vs veh, SLMO2 / RFU, ABCC4 / Fold change vs veh, ABCC4 / RFU, LOC101060439 /// RAP1B / Fold change vs veh, LOC101060439 /// RAP1B / RFU, RFX7 / Fold change vs veh, RFX7 / RFU, GTPBP10 / Fold change vs veh, GTPBP10 / RFU, CNEP1R1 / Fold change vs veh, CNEP1R1 / RFU, BIVM-ERCC5 /// ERCC5 / Fold change vs veh, BIVM-ERCC5 /// ERCC5 / RFU, ILF3 / Fold change vs veh, ILF3 / RFU 11762660_at / Fold change /veh 11762660_at / RFU VCAN (11757783_s_at) / Fold change /veh VCAN (11757783_s_at) / RFU DDX43 (11728927_at) / Fold change /veh DDX43 (11728927_at) / RFU KRT8 (11758188_x_at) / Fold change /veh KRT8 (11758188_x_at) / RFU NKD1 (11759106_at) / Fold change /veh NKD1 (11759106_at) / RFU SRD5A1 (11742802_a_at) / Fold change /veh SRD5A1 (11742802_a_at) / RFU TPSAB1 /// TPSB2 (11721975_s_at) / Fold change /veh TPSAB1 /// TPSB2 (11721975_s_at) / RFU GSTM3 (11746129_a_at) / Fold change /veh GSTM3 (11746129_a_at) / RFU IL23R (11737362_x_at) / Fold change /veh IL23R (11737362_x_at) / RFU TMEM51 (11727254_a_at) / Fold change /veh TMEM51 (11727254_a_at) / RFU PIWIL2 (11732686_x_at) / Fold change /veh PIWIL2 (11732686_x_at) / RFU ORM1 (11744905_x_at) / Fold change /veh ORM1 (11744905_x_at) / RFU CCDC152 (11743942_at) / Fold change /veh CCDC152 (11743942_at) / RFU ECM1 (11717891_a_at) / Fold change /veh ECM1 (11717891_a_at) / RFU IL23R (11748794_a_at) / Fold change /veh IL23R (11748794_a_at) / RFU TNFAIP8L3 (11732012_x_at) / Fold change /veh TNFAIP8L3 (11732012_x_at) / RFU MBOAT4 (11741988_at) / Fold change /veh MBOAT4 (11741988_at) / RFU 11764193_at / Fold change /veh 11764193_at / RFU TMEM53 (11763286_at) / Fold change /veh TMEM53 (11763286_at) / RFU MAGEB2 (11727129_at) / Fold change /veh MAGEB2 (11727129_at) / RFU TMEM200A (11744735_a_at) / Fold change /veh TMEM200A (11744735_a_at) / RFU CCDC152 (11751479_a_at) / Fold change /veh CCDC152 (11751479_a_at) / RFU FAM211A (11726209_a_at) / Fold change /veh FAM211A (11726209_a_at) / RFU RGS16 (11746705_a_at) / Fold change /veh RGS16 (11746705_a_at) / RFU VCAN (11755009_s_at) / Fold change /veh VCAN (11755009_s_at) / RFU RHOB (11743442_s_at) / Fold change /veh RHOB (11743442_s_at) / RFU RGS16 (11720943_a_at) / Fold change /veh RGS16 (11720943_a_at) / RFU RGS16 (11720944_at) / Fold change /veh RGS16 (11720944_at) / RFU, VPS4B / Fold change vs veh, VPS4B / RFU, CREB1 / Fold change vs veh, CREB1 / RFU, DNAJC13 / Fold change vs veh, DNAJC13 / RFU, GNAQ / Fold change vs veh, GNAQ / RFU, CDK5R1 / Fold change vs veh, CDK5R1 / RFU, ZRANB3 / Fold change vs veh, ZRANB3 / RFU, CUL4A / Fold change vs veh, CUL4A / RFU, CCNY / Fold change vs veh, CCNY / RFU, UFL1 / Fold change vs veh, UFL1 / RFU, COG3 / Fold change vs veh, COG3 / RFU, DIAPH2 / Fold change vs veh, DIAPH2 / RFU, SKA2 / Fold change vs veh, SKA2 / RFU, AFF3 / Fold change vs veh, AFF3 / RFU, LMF1 / Fold change vs veh, LMF1 / RFU, IPO11 / Fold change vs veh, IPO11 / RFU, DFFB / Fold change vs veh, DFFB / RFU, FOXP1 / Fold change vs veh, FOXP1 / RFU, CARD8 / Fold change vs veh, CARD8 / RFU, STRN3 / Fold change vs veh, STRN3 / RFU, ADK / Fold change vs veh, ADK / RFU, RASSF2 / Fold change vs veh, RASSF2 / RFU, WIPF1 / Fold change vs veh, WIPF1 / RFU, LARP1B / Fold change vs veh, LARP1B / RFU, RASA1 / Fold change vs veh, RASA1 / RFU, RB1 / Fold change vs veh, RB1 / RFU, PPFIA1 / Fold change vs veh, PPFIA1 / RFU, MAT2A / Fold change vs veh, MAT2A / RFU, CCT5 / Fold change vs veh, CCT5 / RFU, WDR92 / Fold change vs veh, WDR92 / RFU, CUX1 / Fold change vs veh, CUX1 / RFU, TTC7A / Fold change vs veh, TTC7A / RFU, TMEM135 / Fold change vs veh, TMEM135 / RFU, DEPTOR / Fold change vs veh, DEPTOR / RFU, CPM / Fold change vs veh, CPM / RFU, DNAJB6 / Fold change vs veh, DNAJB6 / RFU, CACNA2D3 / Fold change vs veh, CACNA2D3 / RFU, DTX4 / Fold change vs veh, DTX4 / RFU, TFCP2 / Fold change vs veh, TFCP2 / RFU, GMCL1 /// GMCL1P1 / Fold change vs veh, GMCL1 /// GMCL1P1 / RFU, AEBP2 / Fold change vs veh, AEBP2 / RFU, SNHG1 /// SNORD22 /// SNORD25 /// SNORD26 /// SNORD27 /// SNORD28 /// SNORD29 /// SNORD31 / Fold change vs veh, SNHG1 /// SNORD22 /// SNORD25 /// SNORD26 /// SNORD27 /// SNORD28 /// SNORD29 /// SNORD31 / Fold change (Aza/veh), C12orf56 (ProbeSet 11735607_a_at) / Fold change (ACY-1035/veh), C12orf56 (ProbeSet 11735607_a_at) / Fold change (Aza/veh), FGFR1OP (ProbeSet 11751329_s_at) / Fold change (ACY-1035/veh), FGFR1OP (ProbeSet 11751329_s_at) / Fold change (Aza/veh), VPS36 (ProbeSet 11739960_a_at) / Fold change (ACY-1035/veh), VPS36 (ProbeSet 11739960_a_at) / RFU SYPL1 (11715823_x_at) / Fold change /veh SYPL1 (11715823_x_at) / RFU IGFBP7 (11715501_s_at) / Fold change /veh IGFBP7 (11715501_s_at) / RFU REEP3 (11722064_at) / Fold change /veh REEP3 (11722064_at) / RFU IGLL1 (11728026_x_at) / Fold change /veh IGLL1 (11728026_x_at): dose or concentration left out as unconfirmed. Conditions: MV-4-11 cells, 48 hours.

For `Nc1ccc(-c2cccs2)cc1NC(=O)c1ccc2c(c1)cc(C1CC1)n2CCN1CCOCC1` [ACY-1035], the “Fold change /veh TUBB4B (11761932_at)” value amounted to 1.03.
